Source: ChEMBL document CHEMBL1828558, “Discovery of (+)-N-(3-aminopropyl)-N-[1-(5-benzyl-3-methyl-4-oxo-[1,2]thiazolo[5,4-d]pyrimidin-6-yl)-2-methylpropyl]-4-methylbenzamide (AZD4877), a kinesin spindle protein inhibitor and potential anticancer agent” (J Med Chem, 2011)

Columns and labels:
[1] = target: T1, Kinesin-like protein KIF11 (Homo sapiens, UniProt P52732); assay: Inhibition of human recombinant C-terminal His6-tagged KSP ATPase activity after 1 hr by malachite green assay
T1 sequence (P52732 whole entry): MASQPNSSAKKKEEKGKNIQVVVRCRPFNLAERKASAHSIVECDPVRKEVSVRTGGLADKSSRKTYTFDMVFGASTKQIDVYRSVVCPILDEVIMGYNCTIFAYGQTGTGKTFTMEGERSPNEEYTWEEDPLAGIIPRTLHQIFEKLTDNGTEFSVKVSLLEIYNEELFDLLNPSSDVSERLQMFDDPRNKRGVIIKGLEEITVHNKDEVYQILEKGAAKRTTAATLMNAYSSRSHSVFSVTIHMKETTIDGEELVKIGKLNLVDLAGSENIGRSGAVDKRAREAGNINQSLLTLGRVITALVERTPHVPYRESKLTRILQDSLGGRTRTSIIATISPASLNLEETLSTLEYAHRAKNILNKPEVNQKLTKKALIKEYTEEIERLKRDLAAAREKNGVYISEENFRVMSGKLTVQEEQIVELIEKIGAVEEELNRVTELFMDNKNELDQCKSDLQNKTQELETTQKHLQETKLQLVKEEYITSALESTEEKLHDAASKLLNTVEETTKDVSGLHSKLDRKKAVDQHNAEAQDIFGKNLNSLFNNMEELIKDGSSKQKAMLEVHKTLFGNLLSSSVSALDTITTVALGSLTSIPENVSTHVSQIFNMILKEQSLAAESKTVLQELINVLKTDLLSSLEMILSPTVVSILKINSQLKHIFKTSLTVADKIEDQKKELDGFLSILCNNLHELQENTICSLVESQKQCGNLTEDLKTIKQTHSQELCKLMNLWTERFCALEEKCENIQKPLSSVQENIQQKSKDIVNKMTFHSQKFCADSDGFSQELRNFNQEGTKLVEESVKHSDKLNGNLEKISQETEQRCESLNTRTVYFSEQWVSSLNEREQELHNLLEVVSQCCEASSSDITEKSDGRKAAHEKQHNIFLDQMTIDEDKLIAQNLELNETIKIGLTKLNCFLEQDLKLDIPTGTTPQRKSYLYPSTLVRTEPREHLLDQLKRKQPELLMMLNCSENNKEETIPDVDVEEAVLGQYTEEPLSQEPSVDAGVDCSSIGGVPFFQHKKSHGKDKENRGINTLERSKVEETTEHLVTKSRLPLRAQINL

[2] = tested on: COLO 205; assay: Anticancer activity against human COLO205 cells after 72 hrs by MTS/PMS assay; type: functional, cell-based

Structure (SMILES)	IC50 [1] [nM]	IC50 ([2]; Homo sapiens, COLO 205, 72 h) [nM]	IC50 ([2]; colo 205) [nM]
CCC(c1nc2ccsc2c(=O)[nH]1)N(CCCN)C(=O)c1ccc(C)cc1 (stereo not drawn)	9000	–	–
CCC(c1nc2ccsc2c(=O)n1Cc1ccccc1)N(CCCN)C(=O)CC(C)C (stereo not drawn)	4540	–	–
CCC(c1nc2ccsc2c(=O)n1Cc1ccccn1)N(CCCN)C(=O)c1ccc(C)cc1 (stereo not drawn)	3500	–	–
CCC(c1nc2snc(C)c2c(=O)n1Cc1ccccc1)N(CCCN)C(=O)c1ccc(C)c(F)c1 (stereo not drawn)	–	12	–
CCC(c1nc2ccsc2c(=O)n1Cc1ccccc1)N(CCCN)C(=O)c1ccc2ccccc2c1 (stereo not drawn)	30	200	–
CCC(c1nc2ccsc2c(=O)n1Cc1ccc(OC)cc1)N(CCCN)C(=O)c1ccc(C)cc1 (stereo not drawn)	160	790	–
CCC(c1nc2sccc2c(=O)n1Cc1ccccc1)N(CCCN)C(=O)c1ccc(C)cc1 (single isomer, unassigned; (-))	1900	–	–
CCC(c1nc2ccsc2c(=O)n1Cc1ccccc1)N(CCCN)C(=O)C1CC1 (stereo not drawn)	6700	–	–
CCC(c1nc2ccsc2c(=O)n1Cc1ccccc1)N(CCCN)C(=O)c1ccc(C)c(F)c1 (stereo not drawn)	20	60	–
CCCCC(=O)N(CCCN)C(CC)c1nc2ccsc2c(=O)n1Cc1ccccc1 (stereo not drawn)	5520	–	–
CCC(c1nc2sc(Cl)c(Br)c2c(=O)n1Cc1ccccc1)N(CCCN)C(=O)c1ccc(C)cc1 (stereo not drawn)	161	675	–
CCC(c1nc2ccsc2c(=O)n1CC1CC1)N(CCCN)C(=O)c1ccc(C)cc1 (stereo not drawn)	760	3080	–
CCC(c1nc2ccsc2c(=O)n1Cc1ccccc1)N(CCCN)C(=O)c1cccc(C(F)(F)F)c1 (stereo not drawn)	310	580	–
CCC(c1nc2ccsc2c(=O)n1Cc1ccccc1)N(CCCN)C(=O)c1ccc(Cl)cc1 (stereo not drawn)	50	200	–
CCC(c1nc2ccsc2c(=O)n1Cc1ccccc1)N(CCCN)C(=O)c1ccc(C#N)cc1 (stereo not drawn)	2700	–	–
CCC(c1nc2ccn(C)c2c(=O)n1Cc1ccccc1)N(CCCN)C(=O)c1ccc(C)cc1 (stereo not drawn)	21	43	–
CCC(c1nc2ccsc2c(=O)n1Cc1ccccc1)N(CCCN)C(=O)c1ccccc1Cl (stereo not drawn)	610	860	–
CCC(c1nc2ccsc2c(=O)n1Cc1ccccc1)N(CCCN)C(=O)c1ccc(C(F)(F)F)cc1 (stereo not drawn)	210	510	–
CCC(c1nc2ccsc2c(=O)n1Cc1ccccc1)N(CCCN)C(=O)c1ccccc1 (stereo not drawn)	200	680	–
Cc1ccc(C(=O)N(CCCN)C(c2nc3snc(C)c3c(=O)n2Cc2cccc(F)c2)C(C)C)cc1 (single isomer, unassigned; (+))	–	5	–
Cc1ccc(C(=O)N(CCCN)C(c2nc3snc(C)c3c(=O)n2Cc2ccccc2)C(C)C)cc1F (single isomer, unassigned; (+))	–	10	–

Structure (SMILES)	IC50 [1] [nM]	IC50 ([2]; Homo sapiens, COLO 205, 72 h) [nM]	IC50 ([2]; colo 205) [nM]
CCC(c1nc2ccsc2c(=O)n1Cc1ccccc1)N(CCCN)C(=O)c1ccc(OC(F)(F)F)cc1 (stereo not drawn)	2460	–	–
Cc1ccc(C(=O)N(CCCN)C(c2nc3snc(C)c3c(=O)n2Cc2ccccc2)C(C)C)cc1 (single isomer, unassigned; (-)) [AZD-4877]	429	–	–
CCC(c1nc2ccsc2c(=O)n1Cc1ccccc1)N(CCCN)C(=O)c1ccc2c(c1)OCO2 (stereo not drawn)	150	260	–
CCC(c1nc2ccsc2c(=O)n1Cc1ccccc1)N(CCCN)C(=O)c1sccc1C (stereo not drawn)	410	–	–
CCC(c1nc2ccsc2c(=O)n1Cc1ccccc1)N(CCCN)C(=O)c1ccc(C(=O)OC)cc1 (stereo not drawn)	5960	–	–
CCC(c1nc2ncccc2c(=O)n1Cc1ccccc1)N(CCCN)C(=O)c1ccc(C)cc1 (stereo not drawn)	323	1400	–
CCC(c1nc2sccc2c(=O)n1Cc1ccccc1)N(CCCN)C(=O)c1ccc(C)cc1 (single isomer, unassigned; (+))	3	–	8
CCC(c1nc2ccsc2c(=O)n1Cc1ccccc1)N(CC1CCNCC1)C(=O)c1ccc(C)cc1 (stereo not drawn)	1440	10000	–
CCC(c1nc2ccsc2c(=O)n1Cc1ccccc1)N(CCCN)C(=O)c1ccno1 (stereo not drawn)	1390	–	–
CCC(c1nc2ccsc2c(=O)n1Cc1ccccc1)N(CCCN)C(=O)c1ccc(F)cc1 (stereo not drawn)	140	570	–
CCc1ccc(C(=O)N(CCCN)C(CC)c2nc3ccsc3c(=O)n2Cc2ccccc2)cc1 (stereo not drawn)	90	250	–
Cc1ccc(C(=O)N(CCCN)C(c2nc3snc(C)c3c(=O)n2Cc2ccccc2)C(C)C)cc1 (stereo in doubt; 65) [AZD-4877]	–	2	–
CCC(c1nc2ccsc2c(=O)n1Cc1ccccc1)N(CCCN)C(=O)c1ccc(C)nc1 (stereo not drawn)	980	3690	–
CCC(c1nc2ccoc2c(=O)n1Cc1ccccc1)N(CCCN)C(=O)c1ccc(C)cc1 (stereo not drawn)	13	174	–
CCC(c1nc2c(C)nsc2c(=O)n1Cc1ccccc1)N(CCCN)C(=O)c1ccc(C)cc1 (stereo not drawn)	5	45	–
CCC(c1nc2ccsc2c(=O)n1Cc1ccccc1)N(CCCN)C(=O)c1ccc(Br)cc1 (stereo not drawn)	30	160	–
CCC(c1nc2ccsc2c(=O)n1Cc1ccccc1)N(CCCN)C(=O)C1CCC(OC)CC1 (stereo not drawn)	9000	–	–
CCC(c1nc2ccsc2c(=O)n1Cc1ccccc1)N(CCCN)C(=O)c1cccc(C)c1 (stereo not drawn)	90	140	–
CCC(c1nc2ccsc2c(=O)n1Cc1ccccc1)N(CCCN)C(=O)c1ccc(OC)cc1 (stereo not drawn)	210	640	–
Cc1ccc(C(=O)N(CCCN)C(c2nc3snc(C)c3c(=O)n2Cc2ccc(F)cc2)C(C)C)cc1 (stereo not drawn)	–	19	–
CCC(c1nc2ccsc2c(=O)n1Cc1ccccc1)N(CCCNS(C)(=O)=O)C(=O)c1ccc(C)cc1 (stereo not drawn)	5990	–	–

Second part, the molecule after the results:

IC50 [1] [nM]	IC50 ([2]; Homo sapiens, COLO 205, 72 h) [nM]	IC50 ([2]; colo 205) [nM]	Structure (SMILES)
150	310	–	CCC(c1nc2ccsc2c(=O)n1Cc1ccccc1)N(CCCN)C(=O)c1ccc(Cl)cc1Cl (stereo not drawn)
3800	–	–	CCC(c1nc2ccsc2c(=O)n1Cc1cccnc1)N(CCCN)C(=O)c1ccc(C)cc1 (stereo not drawn)
40	–	–	CCC(c1nc2ccsc2c(=O)n1Cc1ccccc1)N(CCCN)C(=O)c1cc2ccccc2s1 (stereo not drawn)
5310	–	–	CCC(c1nc2ccsc2c(=O)n1Cc1ccncc1)N(CCCN)C(=O)c1ccc(C)cc1 (stereo not drawn)
1060	–	–	CCC(c1nc2ccsc2c(=O)n1Cc1ccccc1)N(CCCN)C(=O)c1ccccc1C (stereo not drawn)
9000	–	–	CCC(NC(=O)c1ccc(C)cc1)c1nc2ccsc2c(=O)n1Cc1ccccc1 (stereo not drawn)
1070	1290	–	CCC(c1nc2ccsc2c(=O)n1Cc1ccccc1)N(C(=O)c1ccc(C)cc1)C1CCNCC1 (stereo not drawn)
85	464	–	CCC(c1nc2sc(Cl)cc2c(=O)n1Cc1ccccc1)N(CCCN)C(=O)c1ccc(C)cc1 (stereo not drawn)
20	330	–	CCC(c1nc2ccsc2c(=O)n1Cc1cccc(F)c1)N(CCCN)C(=O)c1ccc(C)cc1 (stereo not drawn)
5460	–	–	CCC(c1nc2nccnc2c(=O)n1Cc1ccccc1)N(CCCN)C(=O)c1ccc(C)cc1 (stereo not drawn)
500	1550	–	CCC(c1nc2ccsc2c(=O)n1Cc1ccccc1)N(CCCN)C(=O)c1ccco1 (stereo not drawn)
10000	–	–	CCC(c1nc2ccsc2c(=O)n1Cc1ccccc1)N(CCCNC(=O)OC(C)(C)C)C(=O)c1ccc(C)cc1 (stereo not drawn)
210	1560	–	CCC(c1nc2ccsc2c(=O)n1Cc1ccc(Cl)cc1)N(CCCN)C(=O)c1ccc(C)cc1 (stereo not drawn)
2310	–	–	CCC(c1nc2ccsc2c(=O)n1Cc1ccccc1)N(CCCN)C(=O)C1COc2ccccc2O1 (stereo not drawn)
–	14	–	CCC(c1nc2snc(C)c2c(=O)n1Cc1ccccc1)N(CCCN)C(=O)c1ccc(Br)cc1 (stereo not drawn)
9090	–	–	CCC(c1nc2ccsc2c(=O)n1Cc1cscn1)N(CCCN)C(=O)c1ccc(C)cc1 (stereo not drawn)
4220	–	–	CCC(c1nc2ccsc2c(=O)n1Cc1ccccc1)N(CCCN)C(=O)C1CCCC1 (stereo not drawn)
130	650	–	CCC(c1nc2ccsc2c(=O)n1Cc1ccc(C)cc1)N(CCCN)C(=O)c1ccc(C)cc1 (stereo not drawn)
3210	–	–	CCC(c1nc2ccsc2c(=O)n1Cc1ccccc1)N(CCCN)C(=O)c1ccc2nccnc2c1 (stereo not drawn)
2920	–	–	CCC(c1nc2ccsc2c(=O)n1Cc1ccccc1)N(CCCNC(C)=O)C(=O)c1ccc(C)cc1 (stereo not drawn)
51	–	–	CCC(c1nc2snc(C)c2c(=O)n1Cc1ccccc1)N(CCCN)C(=O)c1ccc(C)cc1 (single isomer, unassigned; (-))
–	105	–	CCC(c1nc2snc(C)c2c(=O)n1Cc1ccc(F)cc1)N(CCCN)C(=O)c1ccc(C)cc1 (stereo not drawn)
–	6	–	Cc1nsc2nc(C(C(C)C)N(CCCN)C(=O)c3ccc(Br)cc3)n(Cc3ccccc3)c(=O)c12 (stereo not drawn)
140	1360	–	CCC(c1nc2ccsc2c(=O)n1Cc1ccccc1F)N(CCCN)C(=O)c1ccc(C)cc1 (stereo not drawn)
–	13	–	CCC(c1nc2snc(C)c2c(=O)n1Cc1cccc(F)c1)N(CCCN)C(=O)c1ccc(C)cc1 (single isomer, unassigned; (+))
